# pIC50, pKi: −log10 of the molar value.
# Key:
# ICE [1] = molecular target: T1, ICE (Homo sapiens, UniProt P29466); experiment: ICE inhibition, Ki determination (fluorogenic substrate Ac-Tyr-Val-Ala-Asp-AMC); type: biochemical; details: 15 µM Ac-Tyr-Val-Ala-Asp-AMC, 0.5 nM enzyme, 30°C, reversible competitive model
# T1 sequence (P29466 120-297 limits assumed): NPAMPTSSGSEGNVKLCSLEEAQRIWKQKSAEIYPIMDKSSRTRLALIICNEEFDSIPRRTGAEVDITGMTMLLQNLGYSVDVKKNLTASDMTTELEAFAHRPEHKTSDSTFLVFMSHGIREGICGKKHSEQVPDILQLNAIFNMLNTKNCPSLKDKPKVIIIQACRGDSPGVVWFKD
# T1 sequence (P29466 317-404 limits assumed): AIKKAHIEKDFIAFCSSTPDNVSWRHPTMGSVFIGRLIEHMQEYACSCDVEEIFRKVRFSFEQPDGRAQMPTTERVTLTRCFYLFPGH
# Method: Serial dilutions of each compound of the invention are prepared using an initial 8-fold dilution of a DMSO stock into HGE (100 mM HEPES, 20% glycerol v/v, 0.5 mM EDTA), followed by seven serial 2-fold dilutions into HGE + 12.5% DMSO. Ten microliters of diluted stocks or of vehicle (HGE + 12.5% DMSO) are placed in triplicate onto a 96-well microtiter plate. Enzyme is diluted into assay buffer (HGE, 5 mM DTT, 15 µM Ac-Tyr-Val-Ala-Asp-AMC; 0.5 nM final enzyme concentration, pre-warmed to 30°C), and this reaction mixture is added to the plate at 90 µL/well. Substrate hydrolysis is monitored for 300 seconds at 30°C using 385 and 460 nm excitation and emission filters, respectively. Triplicate curves are averaged, and slopes are evaluated by linear regression. To evaluate Ki, plots of percent inhibition vs inhibitor concentration are fit by non-linear regression to a reversible, competitive model: [formula] where the competition factor is (1 + [S]/KM) = 2.
# ICE [2] = molecular target: T1, ICE; experiment: ICE Colorimetric Dose-Response (IC50) Assay; type: biochemical; details: 60 minutes preincubation, 50 µM Ac-Tyr-Val-Ala-Asp-pNA, 25°C
# Method: (§1) Diluted inhibitor stocks are prepared by two-fold serial dilution from a primary stock whose concentration is selected (based on screening results or on prior attempts at IC50 evaluation) to achieve approximately 95% inhibition in the most concentrated well. Aliquots of each dilution are transferred to a microtitre plate in triplicate.
# (§2) ICE enzyme is diluted to approximately 24 nM in HGE buffer (100 mM Hepes pH 7.5, 0.5 mM EDTA, 20% glycerol, 0.1% Bovine Serum Albumin (BSA), and activated by adding dithiothreitol (DTT) to a final concentration of 5 mM. The activated enzyme is then aliquoted into wells containing inhibitor or vehicle, and the plate is preincubated for 60 minutes at ambient temperature. Substrate (Ac-Tyr-Val-Ala-Asp-pNA) is added to each well to a final concentration of 50 µM, and plates are placed in the microtitre plate-reader thermostated to 25°C. Beginning 5 minutes after addition of substrate, absorbance (405 nm) of wells is monitored for 1 hour, and activity is calculated as the mean rate of change in absorbance during this interval.
# [3] = tested on: IL-1β production in human peripheral blood mononuclear cells (PBMCs); experiment: PBMC Cellular Assay - IC50 Determinations (LPS-stimulated IL-1β production, ELISA); type: cell-based; details: human PBMCs stimulated overnight with 10 ng/mL LPS, mature IL-1β by ELISA
# Excerpt: Further evidence that compounds of Formula I are inhibitors of ICE is provided by their ability to inhibit IL-1β production in human peripheral blood mononuclear cells (PBMCs) as described herein. PBMCs are isolated from heparinized blood by centrifugation over a ficoll cushion, then washed three times with phosphate-buffered saline. PBMCs are suspended in a medium containing RPMI 1640 with glutamine, penicillin, streptomycin, and 2% human AB serum, then plated at 10^6 cells per well in 96-well flat bottom plates. PBMCs are stimulated overnight with 10 ng/mL of lipopolysaccharide (LPS, E. coli strain 0111:B4; Calbiochem) in the presence or absence of a compound of Formula I. Medium is harvested, and the level of mature IL-1β was determined using an ELISA kit from R&D Systems. Cells were cultured for an additional 4 hours in the presence of 3-(4,5-dimethylthiazol-2-yl)-2,5-diphenyltetrazolium bromide (MTT) to determine viability.
# Ich-2 enzyme = molecular target: T2, Ich-2 enzyme (Homo sapiens, UniProt P49662); experiment: Ich-2 Colorimetric Dose-Response (IC50) Assay; type: biochemical; details: enzyme 64 nM, 60 µM Ac-Leu-Glu-Val-Asp-pNA; read-out: ICH2 IC50 (Caspase 4)
# T2 sequence (P49662 81-270 limits assumed): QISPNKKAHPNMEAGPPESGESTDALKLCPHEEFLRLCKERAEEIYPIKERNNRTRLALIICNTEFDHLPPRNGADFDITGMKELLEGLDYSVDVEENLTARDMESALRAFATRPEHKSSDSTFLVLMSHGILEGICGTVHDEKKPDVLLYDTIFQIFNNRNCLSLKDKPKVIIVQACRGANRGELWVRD
# T2 sequence (P49662 290-377 limits assumed): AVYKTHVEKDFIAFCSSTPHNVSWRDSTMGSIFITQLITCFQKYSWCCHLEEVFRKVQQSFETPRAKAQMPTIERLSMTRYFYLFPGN
# Method: as §1, §2
# Inhibition of Ich-2 enzyme is assayed as described above for ICE, except that enzyme is used at 64 nM, and 60 µM of the Ich-2-specific substrate Ac-Leu-Glu-Val-Asp-pNA is used instead of the ICE substrate Ac-Tyr-Val-Ala-Asp-pNA.
SMILES,pKi (ICE [1]),pIC50 (ICE [2]),pIC50 (Ich-2 enzyme),pIC50 [3]
"CC(C)C(CC(N)=O)C(=O)NC(CC(=O)O)C(=O)CNS(=O)(=O)CC12CCC(CC1=O)C2(C)C (stereo not drawn) [Example 2, 3-(2-Carbamoylmethyl-3-methyl-butyrylamino)-5-(7,7-dimethyl-2-oxo-bicyclo[2.2.1]hept-1-ylmethanesulfonylamino)-4-oxo-pentanoic acid]",6.97,6.10,5.48,5.20
"CC(C)C(CC(N)=O)C(=O)NC(CC(=O)O)C(=O)CNS(=O)(=O)CCc1ccccc1 (stereo not drawn) [Example 4, 3-(2-Carbamoylmethyl-3-methyl-butyrylamino)-4-oxo-5-(2-phenyl-ethanesulfonyl-amino)-pentanoic acid]",5.66,4.77,5.01,4.19
"CC(C)C(CC(=O)NCCc1ccccc1)C(=O)NC(CC(=O)O)C(=O)CNS(=O)(=O)CCc1ccccc1 (stereo not drawn) [Example 5, 3-[3-Methyl-2-(phenethylcarbamoyl-methyl)-butyrylamino]-4-oxo-5-(2-phenyl-ethanesulfonylamino)-pentanoic acid]",6.47,5.45,5.04,4.46
"CC(C)C(CC(=O)NCCc1ccccc1)C(=O)NC(CC(=O)O)C(=O)CNS(=O)(=O)CC12CCC(CC1)C2(C)C (stereo not drawn) [Example 6, 5-(7,7-Dimethyl-bicyclo[2.2.1]hept-1-ylmethanesulfonylamino)-3-[3-methyl-2-(phenethylcarbamoyl-methyl)-butyrylamino]-4-oxo-pentanoic acid]",6.85,5.97,5.02,5.49
"CC(C)[C@H](CC(=O)NCCCc1ccccc1)C(=O)N[C@H](C=O)CC(=O)O [Example 7, (S,S)-3-{3-Methyl-2-[(3-phenyl-propylcarbamoyl)-methyl]-butyrylamino}-4-oxo-butyric acid]",6.94,6.35,4.68,5.22
"CC(C)C(CC(=O)NCCc1ccccc1)C(=O)NC(CC(=O)O)C(=O)CSCCCc1ccccc1 (stereo not drawn) [Example 10, 3-[3-Methyl-2-(phenethylcarbamoyl-methyl)-butyrylamino]-4-oxo-5-(3-phenyl-propylsulfanyl)-pentanoic acid]",6.27,5.49,4.59,4.67
"CC(C)C(CC(=O)N(C)CCc1ccccc1)C(=O)NC(CC(=O)O)C(=O)CNS(=O)(=O)CC12CCC(CC1=O)C2(C)C (stereo not drawn) [Example 11, 5-(7,7-Dimethyl-2-oxo-bicyclo[2.2.1]hept-1-ylmethanesulfonylamino)-3-{3-methyl-2-[(methyl-phenethyl-carbamoyl)-methyl]-butyrylamino}-4-oxopentanoic acid]",7.24,6.36,4.80,5.26
"CC(C)C(CC(=O)NO)C(=O)NC(CC(=O)O)C(=O)CNS(=O)(=O)CC12CCC(CC1=O)C2(C)C (stereo not drawn) [Example 15, 5-(7,7-Dimethyl-2-oxo-bicyclo[2.2.1]hept-1-ylmethanesulfonylamino)-3-(2-hydroxycarbamoylmethyl-3-methyl-butyrylamino)-4-oxo-pentanoic acid]",6.36,5.69,4.88,4.76

# Now those with a higher pKi (ICE [1]), led by results:
pKi (ICE [1]),pIC50 (ICE [2]),pIC50 (Ich-2 enzyme),SMILES,pIC50 [3]
7.35,6.40,5.33,"CC(C)C(CC(=O)NCCc1ccccc1)C(=O)NC(CC(=O)O)C(=O)CNS(=O)(=O)CC12CCC(CC1=O)C2(C)C (stereo not drawn) [Example 3, 5-(7,7-Dimethyl-2-oxo-bicyclo[2.2.1]hept-1-ylmethanesulfonylamino)-3-[3-methyl-2-(phenethylcarbamoyl-methyl)-butyrylamino]-4-oxo-pentanoic acid]",5.52
7.63,7.28,5.37,"CC(C)C(CC(=O)NCCOc1ccccc1)C(=O)NC(CC(=O)O)C(=O)CNS(=O)(=O)CC12CCC(CC1=O)C2(C)C (stereo not drawn) [Example 9, 5-(7,7-Dimethyl-2-oxo-bicyclo[2.2.1]hept-1-ylmethanesulfonylamino)-3-{3-methyl-2-[(2-phenoxy-ethylcarbamoyl)-methyl]-butyrylamino}-4-oxo-pentanoic acid]",5.68
7.89,7.21,5.77,"CC(C)C(CC(=O)NCCCc1ccccc1)C(=O)NC(CC(=O)O)C(=O)CNS(=O)(=O)CC12CCC(CC1=O)C2(C)C (stereo not drawn) [Example 12, 5-(7,7-Dimethyl-2-oxo-bicyclo[2.2.1]hept-1-ylmethanesulfonylamino)-3-{3-methyl-2-[(3-phenyl-propylcarbamoyl)-methyl]-butyrylamino}-4-oxo-pentanoic acid]",5.92
8.17,7.28,6.60,"CC(C)C(CC(=O)NCCCc1ccccc1)C(=O)NC(CC(=O)O)C(=O)COc1ccc2oc(=O)ccc2c1 (stereo not drawn) [Example 13, 3-{3-Methyl-2-[(3-phenyl-propylcarbamoyl)-methyl]-butyrylamino}-4-oxo-5-(2-oxo-2H-chromen-6-yloxy)-pentanoic acid]",5.63
8.60,8.29,5.83,"CC(C)C(CC(=O)NCCc1c[nH]c2ccccc12)C(=O)NC(CC(=O)O)C(=O)CNS(=O)(=O)CC12CCC(CC1=O)C2(C)C (stereo not drawn) [Example 16, 5-(7,7-Dimethyl-2-oxo-bicyclo[2.2.1]hept-1-ylmethanesulfonylamino)-3-(2-{[2-(1H-indol-3-yl)-ethylcarbamoyl]-methyl}-3-methyl-butyrylamino)-4-oxo-pentanoic acid]",6.46
7.48,7.10,5.33,"CC(C)C(CC(=O)NCCCc1ccc(O)cc1)C(=O)NC(CC(=O)O)C(=O)CNS(=O)(=O)CC12CCC(CC1=O)C2(C)C (stereo not drawn) [Example 17, 5-(7,7-Dimethyl-2-oxo-bicyclo[2.2.1]hept-1-ylmethanesulfonylamino)-3-{3-methyl-2-[[3-(4-hydroxyphenyl)-propylcarbamoyl]-methyl]-butyrylamino}-4-oxo-pentanoic acid]",5.65
7.63,7.05,5.52,"CC(C)C(CC(=O)NCCc1ccc2ccccc2c1)C(=O)NC(CC(=O)O)C(=O)CNS(=O)(=O)CC12CCC(CC1=O)C2(C)C (stereo not drawn) [Example 18, 5-(7,7-Dimethyl-2-oxo-bicyclo[2.2.1]hept-1-ylmethanesulfonylamino)-3-{3-methyl-2-[(2-naphthalen-2-yl-ethylcarbamoyl)-methyl]-butyrylamino}-4-oxo-pentanoic acid]",5.69

# From EP1082127B1 (WARNER-LAMBERT COMPANY LLC, priority 1998, dated 1999)
